Laboratory results reported in the NIST ThermoML archive (doi:10.1016/j.jct.2016.05.021).

Tests used:
[1] = refractive index (Na D-line) (dimensionless); xn = mol fraction of the nth substance listed; conditions: 100 kPa, Liquid, Standard Abbe refractometry
[2] = xn = mol fraction of the nth substance listed; conditions: 100 kPa, Liquid; for speed of sound: Frequency=3 MHz, Sing-around technique in a fixed-path interferometer; for mass density: Vibrating tube method

O=C1CCCN1 [2-pyrrolidinone] + CCCC[n+]1ccn(C)c1.O=S(=O)([N-]S(=O)(=O)C(F)(F)F)C(F)(F)F
Conditions	mass density, [2] [kg/m3]	refractive index, [1]	speed of sound, [2] [m/s]
298.15 K, x2 = 0	1107.16	1.48591	1634.3
298.15 K, x2 = 0.1242	1204.09	1.46742	1491.9
298.15 K, x2 = 0.22	1253.58	1.45836	1431.2
298.15 K, x2 = 0.3191	1292.55	1.45142	1387.3
298.15 K, x2 = 0.4048	1320.08	1.44661	1357.6
298.15 K, x2 = 0.51	1348.24	1.44176	1327.5
298.15 K, x2 = 0.5945	1367.5	1.43844	1306.9
298.15 K, x2 = 0.7171	1391.3	1.4343	1280.2
298.15 K, x2 = 0.8383	1411.52	1.43075	1256.7
298.15 K, x2 = 0.9084	1421.66	1.42892	1244
303.15 K, x2 = 0	1103.07	1.48403	1617.7
303.15 K, x2 = 0.1242	1198.66	1.46576	1477.1
303.15 K, x2 = 0.22	1248.02	1.45679	1417
303.15 K, x2 = 0.3191	1287.03	1.44988	1373.5
303.15 K, x2 = 0.4048	1314.63	1.4451	1344.4
303.15 K, x2 = 0.51	1342.88	1.44028	1314.7
303.15 K, x2 = 0.5945	1362.18	1.43699	1294.3
303.15 K, x2 = 0.7171	1386.09	1.43286	1268.1
303.15 K, x2 = 0.8383	1406.4	1.42932	1244.9
303.15 K, x2 = 0.9084	1416.7	1.42747	1232.4
308.15 K, x2 = 0	1098.99	1.48218	1602.3
308.15 K, x2 = 0.1242	1193.23	1.46414	1462.9
308.15 K, x2 = 0.22	1242.46	1.45525	1403.4
308.15 K, x2 = 0.3191	1281.51	1.44835	1360.3
308.15 K, x2 = 0.4048	1309.18	1.44359	1331.3
308.15 K, x2 = 0.51	1337.52	1.43881	1302.1
308.15 K, x2 = 0.5945	1356.86	1.43554	1281.8
308.15 K, x2 = 0.7171	1380.88	1.43142	1255.9
308.15 K, x2 = 0.8383	1401.28	1.42789	1233.1
308.15 K, x2 = 0.9084	1411.74	1.426	1221
313.15 K, x2 = 0	1094.9	1.48033	1585.4
313.15 K, x2 = 0.1242	1187.79	1.46253	1448.4
313.15 K, x2 = 0.22	1236.9	1.4537	1389.4
313.15 K, x2 = 0.3191	1275.99	1.44683	1346.9
313.15 K, x2 = 0.4048	1303.73	1.44209	1318.2
313.15 K, x2 = 0.51	1332.16	1.43733	1289.4
313.15 K, x2 = 0.5945	1351.54	1.43407	1269.4
313.15 K, x2 = 0.7171	1375.67	1.42997	1244
313.15 K, x2 = 0.8383	1396.16	1.42645	1221.8
313.15 K, x2 = 0.9084	1406.78	1.42456	1209.8
318.15 K, x2 = 0	1090.82	1.47841	1569.4
318.15 K, x2 = 0.1242	1182.35	1.46087	1434.3
318.15 K, x2 = 0.22	1231.34	1.45212	1375.9
318.15 K, x2 = 0.3191	1270.47	1.44527	1333.8
318.15 K, x2 = 0.4048	1298.28	1.44057	1305.5
318.15 K, x2 = 0.51	1326.8	1.43584	1276.9
318.15 K, x2 = 0.5945	1346.22	1.43261	1257.2
318.15 K, x2 = 0.7171	1370.46	1.42853	1232.2
318.15 K, x2 = 0.8383	1391.04	1.42499	1210.4
318.15 K, x2 = 0.9084	1401.82	1.42312	1198.6
323.15 K, x2 = 0	1086.75	1.47649	1553.5
323.15 K, x2 = 0.1242	1176.91	1.4592	1420.2
323.15 K, x2 = 0.22	1225.78	1.45051	1362.6
323.15 K, x2 = 0.3191	1264.95	1.44369	1320.9
323.15 K, x2 = 0.4048	1292.83	1.43902	1292.9
323.15 K, x2 = 0.51	1321.44	1.43432	1264.6
323.15 K, x2 = 0.5945	1340.9	1.4311	1245.2
323.15 K, x2 = 0.7171	1365.25	1.42704	1220.5
323.15 K, x2 = 0.8383	1385.92	1.42352	1199.1
323.15 K, x2 = 0.9084	1396.86	1.42164	1187.6
